Reference: patent publication US20260217701A1, “SELECTIVE BET INHIBITORS AND USES THEREOF” (Tay Therapeutics Limited, priority 2022, published 2026)
Like-named read-outs stand apart in the source and are kept apart here.

Columns and labels:
BET BD2 = settings: public sources, not a head-to-head trial, cited from earlier work; for BD2: comparator BET inhibitors; for Selectivity (BD1/BD2): comparator
BRD4 BD1 = biological target: T1, BRD4 BD1 (Homo sapiens, UniProt O60885); test: NanoBRET bromodomain assay, NanoLuc-BRD4-BD1 in HEK293 cells; type: binding
T1 construct: HEK293 cells were transfected using NanoLuc-BRD4-BD1 or NanoLuc-BRD4-BD2 fusion vectors
Experimental: Exemplary compounds of the disclosure are active against BRD4 BD2 and selective over BRD4 BD1. BRD4 is a representative example of the BET family, as the binding sites of all BET family members are structurally similar. […] IC50s and fold selectivity's are determined as described below and are represented in Table 1.
(§1) Plates were then incubated at 37° C.+5% CO2 incubator for 2 hours.
(§2) Fold Selectivity Calculated (IC50 BD1/IC50 BD2).

BRD4 BD2 = biological target: T2, BRD4 BD2 (Homo sapiens, UniProt O60885); test: NanoBRET bromodomain assay, NanoLuc-BRD4-BD2 in HEK293 cells; type: binding
T2 construct: HEK293 cells were transfected using NanoLuc-BRD4-BD1 or NanoLuc-BRD4-BD2 fusion vectors
Experimental: as §1, §2

Molecule | BD2 (BET BD2) [nM] | Selectivity (BD1/BD2) (BET BD2; nanoBRET assay) [x] | Selectivity (BD1/BD2) (BET BD2; FRET) | IC50 (BRD4 BD1) [nM] | IC50 (BRD4 BD2) [nM] | Fold Selectivity BRD4 BD1/BD2 (BRD4 BD2; IC50 BD1/IC50 BD2, qualitative if an IC50 is at the upper limit)
CNc1nc(-c2nc3ccc(N4CCN(C)CC4)cc3n2Cc2ccccc2)cn2c(C)nnc12 [BI-894999] | 41 | 0.1 |  |  |  | 
Cc1sc2c(c1C)C(c1ccc(Cl)cc1)=N[C@@H](CC(=O)Nc1ccc(O)cc1)c1nnc(C)n1-2 [MK-8628/OTX-015] | 26 | 1.5 |  |  |  | 
Cc1noc2c1-c1ccccc1C(c1ccc(Cl)cc1)=N[C@H]2CC(N)=O [Pelabresib] | 17 |  | 5x (FRET) |  |  | 
NUV-868 | 2 |  | 1,460x (FRET) |  |  | 
Cn1cc(-c2cccc(COC(F)(F)F)c2)c(-c2cn(C)c(=O)c3[nH]c(-c4cnn(C(F)(F)F)c4)cc23)cc1=O [Example 17, 6-methyl-4-(1-methyl-2-oxo-5-(3-((trifluoromethoxy)methyl)phenyl)-1,2-dihydropyridin-4-yl)-2-(1-(trifluoromethyl)-1H-pyrazol-4-yl)-1,6-dihydro-7H-pyrrolo[2,3-c]pyridin-7-one] |  |  |  | > 1000 | < 10 | xxxx (Fold >1000)
